Source: paper PMC5130005, “Indolin-2-one compounds targeting thioredoxin reductase as potential anticancer drug leads” (Oncotarget, 2016)

Legend:
TrxR in HCT 116 cells = target: T1, TrxR in HCT 116 cells (Homo sapiens, UniProt Q16881); experiment: cellular TrxR activity in HCT 116 cell lysates (insulin reduction assay); format: cell-based; conditions: for cellular TrxR activity, HCT 116 cells: 10 h treatment, 20, 30, 40 and 50 μM
T1 construct: Lysates of HCT 116 cells treated with indicated concentrations of selected SCA analogs for 10 h; endogenous in cells; host or cells: HCT 116
T1 sequence (Q16881 1-499 isoform Q16881-5): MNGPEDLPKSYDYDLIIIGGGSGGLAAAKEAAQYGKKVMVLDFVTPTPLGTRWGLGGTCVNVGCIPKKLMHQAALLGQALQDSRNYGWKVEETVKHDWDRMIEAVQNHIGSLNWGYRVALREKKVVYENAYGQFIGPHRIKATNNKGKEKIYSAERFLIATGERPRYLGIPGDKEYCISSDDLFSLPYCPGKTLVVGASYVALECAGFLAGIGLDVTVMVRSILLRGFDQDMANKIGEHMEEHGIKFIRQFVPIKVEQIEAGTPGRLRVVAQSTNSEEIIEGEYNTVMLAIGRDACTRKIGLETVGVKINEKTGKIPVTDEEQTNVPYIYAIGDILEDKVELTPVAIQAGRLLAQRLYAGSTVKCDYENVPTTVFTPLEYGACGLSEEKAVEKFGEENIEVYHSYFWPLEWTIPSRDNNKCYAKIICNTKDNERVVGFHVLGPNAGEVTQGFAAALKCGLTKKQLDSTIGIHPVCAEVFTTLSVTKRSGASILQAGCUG
Method: (§1) Cells were seeded onto 100 mm or 60 mm culture plates and upon reaching ~70% confluency, they were subjected to drug treatment for indicated durations. Pellets of compound-treated or DMSO control cells comprising both attached and floating cells were collected and lysed in lysis buffer (25 mM Tris-HCl pH 7.5, 100 mM NaCl, 2.5 mM EDTA, 2.5 mM EGTA, 20 mM NaF, 1 mM Na3VO4, 20 mM sodium β-glycerophosphate, 10 mM sodium pyrophosphate, 0.5% Triton X-100) with freshly added protease inhibitor cocktail (Roche Diagnostics). Prior to being used in Western blot analysis and/or cellular TrxR, GR, Trx and GPx activity determination, lysates were precleared by centrifugation and protein concentrations were determined using a modified Bradford assay (Bio-Rad Laboratories) as described in the manufacturer's manual. This procedure for collecting whole cell lysate was used for all experiments except for the Trx-redox state determination experiment. Equal amounts of protein (50 μg) in each lysate sample were separated by SDS-PAGE, followed by electroblotting onto nitrocellulose membranes. Electroblotted proteins on membranes were probed with a primary antibody and subsequently by a secondary antibody conjugated to HRP.
(§2) Freshly collected cell lysates were used for measurement of activity of cellular Trx and TrxR. To measure TrxR activity, in each well of a 96-well plate, 25 μg of cell lysate was incubated in a final volume of 50 μl containing 85 mM Hepes (pH 7.6), 0.3 mM insulin, 10 μM rhTrx1, 2.5 mM EDTA and 660 μM NADPH for 40 min at 37°C. Controls containing lysates and all reaction reagents except rhTrx1 for each lysate sample were also set up. 200 μl of 1 mM DTNB in 6 M guanidine-HCl, 200 mM Tris-HCl pH 8.0 solution was added to quench the reaction. The amount of free thiols generated from insulin reduction was determined by DTNB reduction at 412 nm using the VersaMax microplate reader. To measure Trx activity, procedures were carried out similar to those for determining cellular TrxR activity, except that the cell lysates were incubated for 20 min with 300 nM recombinant rat TrxR in place of rhTrx1. Controls containing lysates and all reaction reagents except recombinant rat TrxR for each lysate sample were also set up. For each sample, Trx or TrxR activity was calculated as the absorbance at 412 nm subtracted from that of the corresponding control and expressed as a percentage of the activity measured in DMSO-treated cells.

TrxR in MCF-7 cells = target: T2, TrxR in MCF-7 cells (Homo sapiens, UniProt Q16881); experiment: cellular TrxR activity in MCF-7 cell lysates (insulin reduction assay); format: cell-based; conditions: for cellular TrxR activity, MCF-7 cells: 10 h treatment, 20, 30, 40 and 50 μM
T2 construct: Lysates of MCF-7 cells treated with indicated concentrations of selected SCA analogs for 10 h; endogenous in cells; host or cells: MCF-7
T2 sequence (Q16881 1-499 isoform Q16881-5): T1 sequence (Q16881 1-499 isoform Q16881-5)
Method: as §1, §2

recombinant rat TrxR = target: T3, recombinant rat TrxR (Rattus norvegicus, UniProt O89049); experiment: reversibility of TrxR inhibition (desalting, DTNB reduction assay); format: biochemical; conditions: 20 μM, 30 min, then desalting; activity followed 2 h post-desalting
T3 construct: made in house
T3 sequence (O89049 1-499): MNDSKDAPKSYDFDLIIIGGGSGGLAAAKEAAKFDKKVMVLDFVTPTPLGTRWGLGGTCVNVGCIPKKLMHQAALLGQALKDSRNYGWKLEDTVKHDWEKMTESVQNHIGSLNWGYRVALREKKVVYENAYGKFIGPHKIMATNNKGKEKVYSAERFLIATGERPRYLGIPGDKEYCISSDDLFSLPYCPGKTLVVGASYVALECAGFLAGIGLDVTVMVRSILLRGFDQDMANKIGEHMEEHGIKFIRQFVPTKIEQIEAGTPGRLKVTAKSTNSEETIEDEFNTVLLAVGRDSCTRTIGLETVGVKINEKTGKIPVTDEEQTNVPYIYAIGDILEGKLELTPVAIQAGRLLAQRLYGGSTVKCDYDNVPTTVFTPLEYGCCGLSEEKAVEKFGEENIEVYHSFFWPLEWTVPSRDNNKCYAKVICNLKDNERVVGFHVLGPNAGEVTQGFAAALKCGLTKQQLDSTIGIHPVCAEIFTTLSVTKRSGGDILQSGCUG

[1] = cell viability, MRC-5 normal lung fibroblasts; format: cell-based; conditions: MRC-5 human normal lung fibroblasts, read-out: LC50, MRC-5 cells
[2] = 10 h treatment, 40 and 50 μM, p < 0.05 vs DMSO

| SMILES | cellular TrxR activity, HCT 116 cells (TrxR in HCT 116 cells) | cellular TrxR activity, MCF-7 cells (TrxR in MCF-7 cells) | reversibility of TrxR inhibition (recombinant rat TrxR) | CC50 at 72 h [1] [µM] | cellular TrxR activity at 40 and 50 μM, HCT 116 cells (TrxR in HCT 116 cells; [2]) | cellular TrxR activity at 40 and 50 μM, MCF-7 cells (TrxR in MCF-7 cells; [2]) |
| --- | --- | --- | --- | --- | --- | --- |
| CC(=O)C=C1C(=O)N(C)c2ccccc21 [Compound 1, 1-methyl-3(2-oxopropylidene)indolin-2-one] | did not cause apparent inhibition | did not cause apparent inhibition |  |  |  |  |
| CCCCN1C(=O)/C(=C/C(C)=O)c2ccccc21 [Compound 4] | decrease in TrxR activity in a dose-dependent manner | decrease in TrxR activity in a dose-dependent manner | irreversible inhibitors of TrxR | 25.5 ± 2.7 |  |  |
| CC(=O)/C=C1/C(=O)N(Cc2ccccc2)c2ccccc21 [Compound 5] | decrease in TrxR activity in a dose-dependent manner | decrease in TrxR activity in a dose-dependent manner | irreversible inhibitors of TrxR | 22.7 ± 2.4 | significant reduction | significant reduction |
| CN1C(=O)/C(=C/C(=O)c2ccccc2)c2ccccc21 [Compound 6] | did not cause apparent inhibition | did not cause apparent inhibition |  |  |  |  |
